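Each compound was tested at five concentrations against cells in 96-well plates for 48 hours. At the GI50, growth is halved. TGI is the concentration that stops growth completely.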
Columns and labels:
Assay in all cases: DTP human tumour cell line panel, 48 h
HT29 colon = tested on: HT29 colon
LOX IMVI melanoma = tested on: LOX IMVI melanoma
HCT-15 colon = tested on: HCT-15 colon
CAKI-1 renal = tested on: CAKI-1 renal
SK-MEL-28 melanoma = tested on: SK-MEL-28 melanoma
UACC-257 melanoma = tested on: UACC-257 melanoma
IGROV1 ovarian = tested on: IGROV1 ovarian
NCI-H226 lung = tested on: NCI-H226 lung
PC-3 prostate = tested on: PC-3 prostate
MDA-MB-435 = tested on: MDA-MB-435
T-47D breast = tested on: T-47D breast
SK-OV-3 ovarian = tested on: SK-OV-3 ovarian
MALME-3M melanoma = tested on: MALME-3M melanoma
A549 NSCLC = tested on: A549 NSCLC
HS 578T breast = tested on: HS 578T breast
NCI-H460 lung = tested on: NCI-H460 lung
SF-295 CNS = tested on: SF-295 CNS
HCC-2998 colon = tested on: HCC-2998 colon
SR leukemia = tested on: SR leukemia
HOP-92 NSCLC = tested on: HOP-92 NSCLC
SK-MEL-5 melanoma = tested on: SK-MEL-5 melanoma
NCI/ADR-RES ovarian = tested on: NCI/ADR-RES ovarian
RXF 393 renal = tested on: RXF 393 renal
OVCAR-4 ovarian = tested on: OVCAR-4 ovarian
786-0 renal = tested on: 786-0 renal
DU-145 prostate = tested on: DU-145 prostate
EKVX NSCLC = tested on: EKVX NSCLC
OVCAR-5 ovarian = tested on: OVCAR-5 ovarian
M14 melanoma = tested on: M14 melanoma
SN12C renal = tested on: SN12C renal
COLO 205 colon = tested on: COLO 205 colon
MCF7 breast = tested on: MCF7 breast
NCI-H23 lung = tested on: NCI-H23 lung
K-562 leukemia = tested on: K-562 leukemia
NCI-H522 lung = tested on: NCI-H522 lung
BT-549 breast = tested on: BT-549 breast
SF-539 CNS = tested on: SF-539 CNS
HL-60(TB) leukemia = tested on: HL-60(TB) leukemia
OVCAR-3 ovarian = tested on: OVCAR-3 ovarian
TK-10 renal = tested on: TK-10 renal
A498 renal = tested on: A498 renal
RPMI-8226 leukemia = tested on: RPMI-8226 leukemia
KM12 colon = tested on: KM12 colon
ACHN renal = tested on: ACHN renal
SNB-19 CNS = tested on: SNB-19 CNS
SW-620 colon = tested on: SW-620 colon
HCT-116 colon = tested on: HCT-116 colon
MOLT-4 leukemia = tested on: MOLT-4 leukemia
UACC-62 melanoma = tested on: UACC-62 melanoma
CCRF-CEM leukemia = tested on: CCRF-CEM leukemia
U251 CNS = tested on: U251 CNS
MDA-MB-468 breast = tested on: MDA-MB-468 breast
OVCAR-8 ovarian = tested on: OVCAR-8 ovarian
SF-268 CNS = tested on: SF-268 CNS
HOP-62 NSCLC = tested on: HOP-62 NSCLC

## N#Cc1c(-c2ccc(F)cc2)nc(SCc2ccccc2)nc1N1CCNCC1
HT29 colon
  GI50: 3.3 µM
  TGI: 10.5 µM
LOX IMVI melanoma
  GI50: 1.71 µM
  TGI: 3.33 µM
HCT-15 colon
  GI50: 5.05 µM
  TGI: 17.5 µM
CAKI-1 renal
  GI50: 16 µM
  TGI: 29.7 µM
SK-MEL-28 melanoma
  GI50: 16.3 µM
  TGI: 30.3 µM
UACC-257 melanoma
  GI50: 13.1 µM
  TGI: 26.2 µM
IGROV1 ovarian
  GI50: 14.7 µM
  TGI: 28.9 µM
NCI-H226 lung
  GI50: 13.8 µM
  TGI: 33.4 µM
PC-3 prostate
  GI50: 11.8 µM
  TGI: 25.8 µM
MDA-MB-435
  GI50: 16.9 µM
  TGI: 31.5 µM
T-47D breast
  GI50: 10.1 µM
  TGI: 24.8 µM
SK-OV-3 ovarian
  GI50: 16 µM
  TGI: 29.5 µM
MALME-3M melanoma
  GI50: 14.1 µM
  TGI: 28.2 µM
A549 NSCLC
  GI50: 8.1 µM
  TGI: 21.5 µM
HS 578T breast
  GI50: 14.1 µM
  TGI: 32 µM
NCI-H460 lung
  GI50: 9.2 µM
  TGI: 22.9 µM
SF-295 CNS
  GI50: 15.8 µM
  TGI: 30.1 µM
HCC-2998 colon
  GI50: 1.76 µM
  TGI: 3.22 µM
SR leukemia
  GI50: 1.92 µM
  TGI: 4.61 µM
HOP-92 NSCLC
  GI50: 4.2 µM
  TGI: 18.1 µM
SK-MEL-5 melanoma
  GI50: 15.7 µM
  TGI: 29.2 µM
NCI/ADR-RES ovarian
  GI50: 11.7 µM
  TGI: 27.4 µM
RXF 393 renal
  GI50: 3.14 µM
  TGI: 14.8 µM
OVCAR-4 ovarian
  GI50: 15.7 µM
  TGI: 34.2 µM
786-0 renal
  GI50: 11 µM
  TGI: 25.4 µM
DU-145 prostate
  GI50: 15 µM
  TGI: 29 µM
EKVX NSCLC
  GI50: 12 µM
  TGI: 24.8 µM
OVCAR-5 ovarian
  GI50: 14.1 µM
  TGI: 27.6 µM
M14 melanoma
  GI50: 12 µM
  TGI: 24.8 µM
SN12C renal
  GI50: 13.8 µM
  TGI: 27.2 µM
COLO 205 colon
  GI50: 1.66 µM
  TGI: 3.17 µM
MCF7 breast
  GI50: 3.94 µM
  TGI: 15.3 µM
NCI-H23 lung
  GI50: 15.1 µM
  TGI: 29.3 µM
K-562 leukemia
  GI50: 2.21 µM
  TGI: 5.42 µM
NCI-H522 lung
  GI50: 11.3 µM
  TGI: 25.1 µM
BT-549 breast
  GI50: 13 µM
  TGI: 26.4 µM
SF-539 CNS
  GI50: 15.7 µM
  TGI: 29.4 µM
HL-60(TB) leukemia
  GI50: 4.5 µM
  TGI: 17.3 µM
OVCAR-3 ovarian
  GI50: 14.3 µM
  TGI: 29.1 µM
TK-10 renal
  GI50: 14.5 µM
  TGI: 28.4 µM
A498 renal
  GI50: 13.1 µM
  TGI: 27.3 µM
RPMI-8226 leukemia
  GI50: 3.99 µM
  TGI: 17.5 µM
KM12 colon
  GI50: 17.1 µM
  TGI: 32.8 µM
ACHN renal
  GI50: 14 µM
  TGI: 27.5 µM
SNB-19 CNS
  GI50: 14.2 µM
  TGI: 29.3 µM
SW-620 colon
  GI50: 3.38 µM
  TGI: 13.1 µM
HCT-116 colon
  GI50: 3.51 µM
  TGI: 11.6 µM
MOLT-4 leukemia
  GI50: 7.07 µM
  TGI: 21.2 µM
UACC-62 melanoma
  GI50: 14.4 µM
  TGI: 28.2 µM
CCRF-CEM leukemia
  GI50: 13.9 µM
  TGI: 31 µM
U251 CNS
  GI50: 4.36 µM
  TGI: 16.1 µM
MDA-MB-468 breast
  GI50: 6.71 µM
  TGI: 21.3 µM
OVCAR-8 ovarian
  GI50: 6.21 µM
  TGI: 21.8 µM
SF-268 CNS
  GI50: 12.9 µM
  TGI: 29.1 µM
HOP-62 NSCLC
  GI50: 13.2 µM
  TGI: 28.1 µM
